Consider 24 molecules from patent publication US20250154172A1, “PRMT5 INHIBITORS AND USES THEREOF” (Gilead Sciences, Inc., priority 2023, published 2025).

The CC50 is the concentration giving 50% cytotoxicity.

In this experiment the test system is HCT116 MTAP-deleted cell lines. The experiment is described as follows: Cell viability assay for HCT116 isogenic pair (CellTitre-Glo, 7 days). The format is cell-based. The settings on record: Homo sapiens, HCT-116, 168 h, 7 days of treatment, cell line not given. The method, then:
Control compounds were analyzed in parallel each time for quality control.
In Brief, on Day −1, a serial dilution of stock compounds in DMSO was performed using BioMek liquid handlers and dispensed using Echo acoustic dispenser into 384 well plates. Both tool compounds and sample compounds were spotted in the same plate for a dose response of PRMT5 inhibitors. Compound plates were stored as frozen until the cells were ready for seeding.
On Day 0, 100 HCT WT or HCT116 MTAP-deleted cells were seeded in compound-containing 384 well plates (50 μl per well) in RPMI 1640 media supplemented with 10% heat inactivated fetal bovine serum, Glutamax and penicillin streptomycin using EL460 liquid dispenser 5 μl cassette (BioTek, part no. 7170011). After equilibrating the plate in room temperature, the cells were incubated for 7 days inside the sealed incubator set at 37° C. with 90% humidity and 5% CO2.
On Day 7, the viability of cells was measured using a CTG assay kit (CellTitre-Glo; Promega cat no. G7573). Shortly, 40 μl per well of luminescent cell viability assay reagent were dispensed using EL460 liquid dispenser 5 μl cassette. CTG luminescence signal was measured using an EnVision plate reader (PerkinElmer) in accordance with manufacturer's instruction. The CCso values for each compound after 7 days of treatment were calculated using 4 parameter non-linear logistical curve fit.
For the cell viability assay ie CC50 shown in nM in Table 3.
Take `C[C@@H]1C[C@@H]2CCc3cc(C(F)(F)F)ccc3[C@@H]2N(C(=O)c2cc3c4c(c(N)nc3cn2)COC4)C1` (racemic) [Example Ca-40, (Rac)-(4-amino-1,3-dihydrofuro[3,4-c][1,7]naphthyridin-8-yl)((3R,4aS,10bR)-3-methyl-8-(trifluoromethyl)-3,4,4a,5,6,10b-hexahydrobenzo[h]quinolin-1(2H)-yl)methanone]: the CC50 stood at 179 nM.

For the molecule `Cn1ncc2c(N)nc3ccc(C(=O)N4CCC[C@@H]5Oc6cc(C(F)(F)F)ccc6[C@@H]54)cc3c21` [Example Ca-5, (4-amino-1-methyl-1H-pyrazolo[4,3-c]quinolin-8-yl)((4aS,9bS)-7-(trifluoromethyl)-3,4,4a,9b-tetrahydrobenzofuro[3,2-b]pyridin-1(2H)-yl)methanone], the CC50 came to 8 nM. This CC50 lies about 22-fold lower than the previous one.

`C[C@@H]1CN(C(=O)c2cc3c(cn2)nc(N)c2cnn(C)c23)[C@H]2c3ccc(Br)cc3C[C@H]2O1` [Example Ca-50, (4-amino-1-methyl-1H-pyrazolo[4,3-c][1,7]naphthyridin-8-yl)((2R,4aS,9aR)-7-bromo-2-methyl-2,3,9,9a-tetrahydroindeno[2,1-b][1,4]oxazin-4(4aH)-yl)methanone] displayed a CC50 of 20 nM.

In turn, `Cn1ncc2c(N)nc3cnc(C(=O)N4CCO[C@@H]5Cc6cc(OC(F)(F)F)ccc6[C@@H]54)cc3c21` [Example Ca-53, (4-amino-1-methyl-1H-pyrazolo[4,3-c][1,7]naphthyridin-8-yl)((4aS,9aR)-7-(trifluoromethoxy)-2,3,9,9a-tetrahydroindeno[2,1-b][1,4]oxazin-4(4aH)-yl)methanone] had a CC50 of 33 nM. This CC50 is about 1.6-fold higher than that of the molecule before.

On to `Cn1ncc2c(N)nc3cnc(C(=O)N4CC[C@H]5C[C@@H]4c4ccc(C(F)(F)F)nc4O5)cc3c21` [Example Ca-2, (4-amino-1-methyl-1H-pyrazolo[4,3-c][1,7]naphthyridin-8-yl)((2S,6R)-9-(trifluoromethyl)-3,4-dihydro-2H-2,6-methanopyrido[2,3-b][1,5]oxazocin-5(6H)-yl)methanone], for which the midpoint of cytotoxicity, the CC50, lay at 8 nM.

`C[C@@H]1CN(C(=O)c2cc3c(cn2)nc(N)c2cnn(C)c23)[C@H]2c3ccc(Cl)cc3C[C@H]2O1` (single isomer, unassigned) [Example Ca-37] displayed a CC50 of 22 nM.

`Nc1nc2cnc(C(=O)N3CCC[C@@H]4Oc5cc(C(F)(F)F)ccc5[C@@H]43)cc2c2c1COC2` (racemic) [Example Ca-1, (Rac)-(4-amino-1,3-dihydrofuro[3,4-c][1,7]naphthyridin-8-yl)((4aS,9bS)-7-(trifluoromethyl)-3,4,4a,9b-tetrahydrobenzofuro[3,2-b]pyridin-1(2H)-yl)methanone]: the midpoint of cytotoxicity, the CC50, lay at 26 nM. This CC50 and that of the molecule before are within 1.5-fold of each other.

Turning to `C[C@H]1CN(C(=O)c2cc3c(cc2F)nc(N)c2cnn(C)c23)[C@H]2c3ccc(C(F)(F)F)cc3C[C@H]2O1` [Example Ca-22, (4-amino-7-fluoro-1-methyl-1H-pyrazolo[4,3-c]quinolin-8-yl)((2S,4aS,9aR)-2-methyl-7-(trifluoromethyl)-2,3,9,9a-tetrahydroindeno[2,1-b][1,4]oxazin-4(4aH)-yl)methanone], the CC50 was found to be 11 nM.

For the molecule `C[C@@H]1C[C@@H]2Oc3cc(C(F)(F)F)ccc3[C@@H]2N(C(=O)c2cc3c(cn2)nc(N)c2cnn(C)c23)C1` [Example Ca-17, (4-amino-1-methyl-1H-pyrazolo[4,3-c][1,7]naphthyridin-8-yl)((3R,4aS,9bS)-3-methyl-7-(trifluoromethyl)-3,4,4a,9b-tetrahydrobenzofuro[3,2-b]pyridin-1(2H)-yl)methanone], it took 7 nM to reach half-maximal cytotoxicity (CC50).

`Nc1nc2cnc(C(=O)N3CC[C@H]4C[C@@H]3c3ccc(OC(F)(F)F)cc3O4)cc2c2c1COC2` [Example Ca-46, (4-amino-1,3-dihydrofuro[3,4-c][1,7]naphthyridin-8-yl)((2S,6R)-9-(trifluoromethoxy)-3,4-dihydro-2H-2,6-methanobenzo[b][1,5]oxazocin-5(6H)-yl)methanone] registered a CC50 of 25 nM.

Take `Cn1ncc2c(N)nc3cc(F)c(C(=O)N4CCO[C@@H]5Cc6cc(C(F)(F)F)ccc6[C@@H]54)cc3c21` (racemic) [Example Ca-10, (Rac)-(4-amino-7-fluoro-1-methyl-1H-pyrazolo[4,3-c]quinolin-8-yl)(7-(trifluoromethyl)-2,3,9,9a-tetrahydroindeno[2,1-b][1,4]oxazin-4(4aH)-yl)methanone]: the midpoint of cytotoxicity, the CC50, lay at 10 nM.

In the case of `Cn1ncc2c(N)nc3ccc(C(=O)N4CCO[C@@H]5Cc6cc(C(F)(F)F)ccc6[C@@H]54)cc3c21` (racemic) [Example Ca-11, (Rac)-(4-amino-1-methyl-1H-pyrazolo[4,3-c]quinolin-8-yl)(7-(trifluoromethyl)-2,3,9,9a-tetrahydroindeno[2,1-b][1,4]oxazin-4(4aH)-yl)methanone], half-maximal cytotoxicity (CC50) was put at 65 nM.

Molecule `Cn1ncc2c(N)nc3cc(F)c(C(=O)N4CCC[C@@H]5Oc6cc(C(F)(F)F)ccc6[C@@H]54)cc3c21` [Example Ca-4, (4-amino-7-fluoro-1-methyl-1H-pyrazolo[4,3-c]quinolin-8-yl)((4aS,9bS)-7-(trifluoromethyl)-3,4,4a,9b-tetrahydrobenzofuro[3,2-b]pyridin-1(2H)-yl)methanone] returned a CC50 of 3 nM.

With `Cn1ncc2c(N)nc3ccc(C(=O)N4CC[C@@H]5Oc6cc(C(F)(F)F)ccc6[C@@H]54)cc3c21` (racemic) [Example Ca-55, Rac-(4-amino-1-methyl-1H-pyrazolo[4,3-c]quinolin-8-yl)((3aS,8bS)-6-(trifluoromethyl)-2,3,3a,8b-tetrahydro-1H-benzofuro[3,2-b]pyrrol-1-yl)methanone], the midpoint of cytotoxicity, the CC50, lay at 106 nM.

Consider `CN(C(=O)c1cc2c(cn1)nc(N)c1cnn(C)c12)[C@H]1c2ccc(C(F)(F)F)cc2[C@H]2C[C@H]21` (single isomer, unassigned) [Example Ca-26], for which the CC50 was 25 nM.

In the case of `Cn1ncc2c(N)nc3cc(F)c(C(=O)N4CCC[C@@H]5Oc6cc(-c7cnn(C(F)(F)F)c7)ccc6[C@@H]54)cc3c21` [Example Ca-56, (4-amino-7-fluoro-1-methyl-1H-pyrazolo[4,3-c]quinolin-8-yl)((4aS,9bS)-7-(1-(trifluoromethyl)-1H-pyrazol-4-yl)-3,4,4a,9b-tetrahydrobenzofuro[3,2-b]pyridin-1(2H)-yl)methanone], half-maximal cytotoxicity (CC50) was put at 4 nM.

Molecule `C[C@@H]1CN(C(=O)c2cc3c(cn2)nc(N)c2cnn(C)c23)[C@H]2c3ccc(C(F)(F)F)cc3C[C@H]2O1` [Example Ca-49, (4-amino-1-methyl-1H-pyrazolo[4,3-c][1,7]naphthyridin-8-yl)((2R,4aS,9aR)-2-methyl-7-(trifluoromethyl)-2,3,9,9a-tetrahydroindeno[2,1-b][1,4]oxazin-4(4aH)-yl)methanone] returned a 50% cytotoxic concentration (CC50) of 26 nM. This CC50 is about 6.5-fold higher than that of the molecule before.

For `Nc1nc2cnc(C(=O)N3CCC[C@@H]4Cc5cc(C(F)(F)F)ccc5[C@@H]43)cc2c2c1COC2` (racemic) [Example Ca-23, (Rac)-(4-amino-1,3-dihydrofuro[3,4-c][1,7]naphthyridin-8-yl)((4aR,9bR)-7-(trifluoromethyl)-2,3,4,4a,5,9b-hexahydro-1H-indeno[1,2-b]pyridin-1-yl)methanone], it took 134 nM to reach half-maximal cytotoxicity (CC50).

For the molecule `Cn1ncc2c(N)nc3cc(Cl)c(C(=O)N4CCC[C@H]5Oc6cc(C(F)(F)F)ccc6[C@H]54)cc3c21` (stereo in doubt) [Example Ca-3, (4-amino-7-chloro-1-methyl-1H-pyrazolo[4,3-c]quinolin-8-yl)((4aR,9bR)-7-(trifluoromethyl)-3,4,4a,9b-tetrahydrobenzofuro[3,2-b]pyridin-1(2H)-yl)methanone], the cytotoxic concentration (CC50) came out at 5 nM.

On to `Cn1ncc2c(N)nc3cnc(C(=O)N4CCO[C@@H]5Cc6cc(Br)c(F)cc6[C@@H]54)cc3c21` [Example Ca-29, (4-amino-1-methyl-1H-pyrazolo[4,3-c][1,7]naphthyridin-8-yl)((4aS,9aR)-7-bromo-6-fluoro-2,3,9,9a-tetrahydroindeno[2,1-b][1,4]oxazin-4(4aH)-yl)methanone], for which the CC50 was 5 nM.

In the case of `C[C@H]1CN(C(=O)c2cc3c(cn2)nc(N)c2cnn(C)c23)[C@H]2c3ccc(Cl)cc3C[C@H]2O1` (single isomer, unassigned) [Example Ca-38], the CC50 was found to be 129 nM. This CC50 is about 26-fold higher than that of the molecule before.

For `Cn1ncc2c(N)nc3cnc(C(=O)N4CCO[C@@H]5Cc6cc(C7CC7)ccc6[C@@H]54)cc3c21` [Example Ca-34, (4-amino-1-methyl-1H-pyrazolo[4,3-c][1,7]naphthyridin-8-yl)((4aS,9aR)-7-cyclopropyl-2,3,9,9a-tetrahydroindeno[2,1-b][1,4]oxazin-4(4aH)-yl)methanone], it took 62 nM to reach half-maximal cytotoxicity (CC50).

The molecule `Nc1nc2cnc(C(=O)N3CC[C@H]4C[C@@H]3c3c(F)cc(C(F)(F)F)cc3O4)cc2c2c1COC2` [Example Ca-59, (4-amino-1,3-dihydrofuro[3,4-c][1,7]naphthyridin-8-yl)((2S,6R)-7-fluoro-9-(trifluoromethyl)-3,4-dihydro-2H-2,6-methanobenzo[b][1,5]oxazocin-5(6H)-yl)methanone] came in with a CC50 of 17 nM.

With `[2H]C1([2H])CC[C@@H]2Oc3cc(C(F)(F)F)cc(F)c3[C@@H]2N1C(=O)c1cc2c3c(c(N)nc2cn1)COC3` [Example Ca-58, (4-amino-1,3-dihydrofuro[3,4-c][1,7]naphthyridin-8-yl)((4aS,9bS)-9-fluoro-7-(trifluoromethyl)-3,4,4a,9b-tetrahydrobenzofuro[3,2-b]pyridin-1(2H)-yl-2,2-d2)methanone], the midpoint of cytotoxicity, the CC50, lay at 9 nM.
